Structures can show the parent of a compound that is named as a salt. Where two headings read alike, the source gives them in different places. Starred links: 1 amine or outer side, 2 acyl side, 3 side chain; linkers in the order of their positions; H or OH if unused. Positions of bridges follow the written chain, without caps; N, C: chain ends. Non-standard residues stand in square brackets, D forms with d. Residues, ends and D or L forms follow the SMILES beside them. ξ: configuration not given here. *: point of attachment. Phe(4-CF3) = N[C@@H](Cc1ccc(C(F)(F)F)cc1)C(=O)O; NMeF = CN[C@@H](Cc1ccccc1)C(=O)O; NMeI = CC[C@H](C)[C@H](NC)C(=O)O; NMeβAla = CN(CCC(=O)[*:2])[*:1]; NMeL = CN[C@@H](CC(C)C)C(=O)O; Thr(3ξ) = CC(O)[C@H](N)C(=O)O; NMeV = CN[C@H](C(=O)O)C(C)C; NMeA = CN[C@@H](C)C(=O)O; Piperidide = C1CCN(*)CC1; dNMeA = CN[C@H](C)C(=O)O; β3hA = C[C@H](N)CC(=O)O; Sar = CNCC(=O)O
Columns and labels:
[1] = PAMPA (parallel artificial membrane permeability assay); format: in vitro ADME; details: PAMPA
Outline: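 Artificial membrane was 10% (w/v) egg lecithin plus 0.5% (w/v) cholesterol in dodecane on a PVDF filter. A 10 mM DMSO stock was added at 0.5% (v/v) to donor buffer (50 mM MOPSO, pH 6.5, 5.0% glycocholic acid). After 18 h at 37 °C, LC/MS or LC/UV gave donor and acceptor levels for Pe.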

[2] = Metabolic stability in human hepatic microsome; format: in vitro ADME; details: microsomes
[3] = membrane permeation rate (Pe), 50 mM MOPSO buffer pH 6.5 with 5.0% glycocholic acid, 37° C., 18 hours, read-out: iPAMPA Pe
[4] = pH 7.4, human hepatic microsome, NADPH(+), read-out: CL NADPH(+)

SMILES | Papp at 18 hours, 50 µM ([1]; pH 6.5) [×10⁻⁶ cm/s] | microsomal CLint at 1 uM ([2]; human, pH 7.4, CL NADPH(+)) [µL/min/mg] | Papp at 18 hours, 50 µM [1, 3] [×10⁻⁶ cm/s] | microsomal CLint at 1 uM [2, 4] [µL/min/mg]
CC[C@H](C)[C@H]1C(=O)N[C@@H](CC(C)C)C(=O)N(C)CC(=O)N[C@@H]([C@@H](C)O)C(=O)N[C@@H](Cc2ccccc2)C(=O)N[C@@H](C)C(=O)N(C)[C@@H](CC(C)C)C(=O)N[C@@H](Cc2ccccc2)C(=O)N[C@@H](C(C)C)C(=O)N[C@H](C(=O)N2CCCCC2)CC(=O)N[C@@H](C)C(=O)N[C@@H](CC(C)C)C(=O)N1C [DP-35] (AL[NMeI]L[Sar]TFA[NMeL]FVD-Piperidide; lactam N-12) | 12 | 32 | – | –
CC(C)C[C@H]1C(=O)N[C@H](C(=O)N(C)[C@@H](Cc2ccccc2)C(=O)N(C)[C@@H](Cc2ccccc2)C(=O)N[C@@H](C)C(=O)N2CCCCC2)CC(=O)N(C)CCC(=O)N[C@@H](C)C(=O)N(C)[C@@H](Cc2ccccc2)C(=O)N(C)[C@@H](C(C)C)C(=O)NCC(=O)N[C@@H]([C@@H](C)O)C(=O)N(C)[C@@H](C)C(=O)N[C@@H](C(C)C)C(=O)N1C [DP-391] ([NMeβAla]A[NMeF][NMeV]GT[NMeA]V[NMeL]D[NMeF][NMeF]A-Piperidide; lactam N-10) | – | – | 4.5 | 14
CC[C@H](C)[C@@H]1NC(=O)[C@H](CC(C)C)N(C)C(=O)[C@H](C)N(C)C(=O)[C@H]([C@@H](C)O)NC(=O)[C@H](Cc2ccccc2)N(C)C(=O)[C@H](C)N(C)C(=O)[C@@H](C)N(C)C(=O)C[C@@H](C(=O)N(C)[C@@H](Cc2ccccc2)C(=O)N(C)[C@@H](Cc2ccccc2)C(=O)N[C@@H](C)C(=O)N2CCCCC2)NC(=O)[C@H](C(C)C)N(C)C(=O)[C@H](CC(C)C)N(C)C1=O [DP-300] ([dNMeA][NMeA][NMeF]T[NMeA][NMeL]I[NMeL][NMeV]D[NMeF][NMeF]A-Piperidide; lactam N-10) | – | – | 8.2 | 166
CC[C@H](C)[C@@H]1NC(=O)[C@H](CC(C)C)N(C)C(=O)[C@H](Cc2ccccc2)NC(=O)[C@@H](C)N(C)C(=O)C[C@@H](C(=O)N2CCCCC2)NC(=O)[C@H](Cc2ccccc2)NC(=O)[C@H](C(C)O)NC(=O)[C@@H]2CCCN2C(=O)[C@H](CC(C)C)N(C)C(=O)CNC(=O)[C@H](CC(C)C)N(C)C1=O (some centres unmarked) [DP-162] ([dNMeA]F[NMeL]I[NMeL]G[NMeL]P[Thr(3ξ)]FD-Piperidide; lactam N-11) | – | – | 35 | 90
CC[C@H](C)[C@@H]1NC(=O)[C@H](CC(C)C)N(C)C(=O)[C@H](CC(C)C)N(C)C(=O)[C@H](C)NC(=O)[C@H](CC(C)C)N(C)C(=O)[C@H](Cc2ccc(C(F)(F)F)cc2)NC(=O)[C@H]([C@@H](C)O)NC(=O)[C@H](CC(C)C)N(C)C(=O)[C@H](CC(C)C)N(C)C(=O)[C@H](C)N(C)C(=O)C[C@H](C)NC1=O [DP-776] (cyclo(A[NMeL][NMeL]I[β3hA][NMeA][NMeL][NMeL]T[Phe(4-CF3)][NMeL])) | 18 | 44 | – | –
CC[C@H](C)[C@H]1C(=O)N(C)CC(=O)N(C)[C@@H](Cc2ccccc2)C(=O)N[C@H](C(=O)N2CCCCC2)CC(=O)N(C)CCC(=O)N(C)[C@@H](C(C)C)C(=O)N(C)[C@@H](CC(C)C)C(=O)N[C@@H](CC(C)C)C(=O)N[C@@H]([C@@H](C)O)C(=O)N(C)[C@@H](C)C(=O)N[C@@H](Cc2ccccc2)C(=O)N1C [DP-68] ([NMeβAla][NMeV][NMeL]LT[NMeA]F[NMeI][Sar][NMeF]D-Piperidide; lactam N-11) | 26 | 35 | – | –
CC[C@H](C)[C@@H]1NC(=O)[C@H](C)N(C)C(=O)[C@H]([C@@H](C)O)NC(=O)[C@H](C(C)C)N(C)C(=O)[C@H](C)N(C)C(=O)[C@H](Cc2ccccc2)NC(=O)[C@H](C)NC(=O)C[C@@H](C(=O)N(C)[C@@H](Cc2ccccc2)C(=O)N[C@@H](C)C(=O)N2CCCCC2)NC(=O)[C@H](C)N(C)C(=O)[C@H](CC(C)C)N(C)C1=O [DP-288] (AF[NMeA][NMeV]T[NMeA]I[NMeL][NMeA]D[NMeF]A-Piperidide; lactam N-10) | 18 | 80 | – | –
